Source: patent publication US10624828B2, “Personal care compositions comprising a 2-pyridinol N-oxide material and an iron chelator” (The Procter & Gamble Company, priority 2017, dated 2020)
Marks after values point to notes of the source that are not given here.

Legend:
[1] = test system: Staphylococcus aureus ATCC 6538; assay: Minimum Inhibitory Concentration (MIC), broth dilution, visual pellet reading; assay type: cell-based; conditions: S. aureus ATCC 6538, material alone, 37° C., 24 hours, average of triplicates
Protocol: The minimum inhibitory concentration (“MIC”) is the concentration (in ppm) of anti-bacterial agent that causes growth inhibition of bacteria so that no pellet is formed in the culture medium (as explained below in the method). […] Staphylococcus aureus ATCC 6538 is cultured onto tryptic soy agar (TSA) (Oxoid CM0131) over 24 hours. […] This gives 5×10^5 cfu/mL. […] The plate is then placed into a plastic sheet to minimize evaporation. The plate is then incubated at 37° C. for 24 hours. After 24 hours, the plate is removed and read visually to determine if a pellet is formed at the bottom of the well versus positive (without adding antibacterial material) and negative (without bacterial inoculum) growth controls. […] The experiment is carried out in triplicates and the MIC values are determined by the average of the results.

[2] = test system: Staphylococcus aureus ATCC 6538; assay: Combinatorial Minimum Inhibitory Concentration (cMIC), OD 620 nm; conditions: for MIC: minimum amount of chelant at which there is no bacteria growth: chelator alone (0 ppm piroctone olamine)
Protocol: A Combinatorial Minimum Inhibitory Concentration (“cMIC”) is used to determine the combinatorial effects of two chemicals on anti-bacterial activity in a tissue culture setting. Herein, the cMIC is a measure of the Minimum Inhibitory concentrations of 1-hydroxy-4-methyl-6-(2,4,4-trimethylpentyl)-2-pyridone monoethanolamine salt in combination with a chelant or vice versa.
Method Overview: • a. Each cMIC assay is run in triplicates. • b. Staphylococcus aureus ATCC 6538 is cultured on tryptic soy agar (TSA) (Oxoid CM0131) over 24 hours. The single colonies are then transferred into saline and mixed through vortex to obtain an optical density (OD) of 0.08-0.13 at 620 nm. 200 uL of this bacterial suspension is added to 19.8 mL of Mueller Hinton Broth (MHB) (BD 212322). This gives 5×10^5 cfu/mL. 100 uL of this bacteria-MHB mix is added to a 96 well flat-bottomed plate (TRP 92196). • c. 1-hydroxy-4-methyl-6-(2,4,4-trimethylpentyl)-2-pyridone monoethanolamine salt is pipetted into the wells in varying concentrations as indicated below. • d. Different Chelants are pipetted into the wells in varying concentrations, as indicated below. • e. The plates are then read using a spectrophotometer at 620 nm. This is the 0-hour reading. • f. The plates are incubated at 37° C. for 18 hours with shaking at 50 rpm. • g. The optical density of the plate is then measured using a spectrophotometer at 620 nm. • h. The OD value is calculated as subtraction of the readings between 18-hour and the 0-hour. • i. cMIC is determined as the minimal concentration of 1-hydroxy-4-methyl-6-(2,4,4-trimethylpentyl)-2-pyridone monoethanolamine salt in combination with a chelant or vice versa, corresponding to the well whose OD value is less than 10% of the OD value of the control well without 1-hydroxy-4-methyl-6-(2,4,4-trimethylpentyl)-2-pyridone monoethanolamine salt and chelator (full growth).

[3] = NIST Standard Reference Database 46; cited from earlier work
[4] = 3.125 ppm piroctone olamine combined with chelator (62.5 ppm DTPMP or 250 ppm DTPA), (MIC − cMIC)/MIC x 100%
[5] = 6.25 ppm piroctone olamine combined with chelator (15.6 ppm DTPMP or 125 ppm DTPA)
[6] = 6.25 ppm piroctone olamine combined with chelator (15.6 ppm DTPMP or 125 ppm DTPA), (MIC − cMIC)/MIC x 100%
[7] = in the presence of 3.125 ppm piroctone olamine
[8] = in the presence of 6.25 ppm piroctone olamine

Compound | MIC (ppm) [1] | Antibacterial Efficiency of piroctone olamine boosted by Chelator [2, 4] | boost of antibacterial efficacy of piroctone olamine alone (fold) [2, 5] | Antibacterial Efficiency of piroctone olamine boosted by Chelator [2, 6] | MIC: minimum amount of chelant at which there is no bacteria growth [2] | cMIC: minimum amount of chelant at which there is no bacteria growth in the presence of piroctone olamine [2, 7] | cMIC: minimum amount of chelant at which there is no bacteria growth in the presence of piroctone olamine [2, 8] | Log K1 (iron binding affinity) [3] | also measured
Cc1cc(CC(C)CC(C)(C)C)n(O)c(=O)c1.NCCO (stereo not shown) [reference compound] |  |  |  |  |  |  |  |  | MIC ([1]; Staphylococcus aureus, ATCC6538): 12.5 µg/mL; Antibacterial Efficiency of piroctone olamine boosted by Chelator ([2]; 12.5 ppm piroctone olamine, 0 ppm chelator): 0; cMIC: minimum amount of piroctone olamine at which there is no bacteria growth in the presence of chelant ([2]; in the presence of 125 ppm DTPA): 6.25** ppm; cMIC: minimum amount of piroctone olamine at which there is no bacteria growth in the presence of chelant ([2]; in the presence of 250 ppm DTPA): 3.125** ppm; MICpiroctone olamine: minimum amount of the salt at which there is no bacteria growth ([2]; piroctone olamine alone (0 ppm chelator)): 12.5* ppm
O=C(O)CN(CCN(CC(=O)O)CC(=O)O)CCN(CC(=O)O)CC(=O)O [DTPA, diethylenetriaminepentaacetic acid] | 500 ppm | 75% | 2 fold | 50% | 500^# ppm | 250^## ppm | 125^## ppm | 28 | 
O=P(O)(O)CN(CCN(CP(=O)(O)O)CP(=O)(O)O)CCN(CP(=O)(O)O)CP(=O)(O)O [DTPMP, Diethylenetriaminepentakis (methylenephosphonic acid)] | 250 ppm | 75% | 2 fold | 50% | 250^# ppm | 62.5^## ppm | 15.6^## ppm | 23 | boost of antibacterial efficacy of piroctone olamine alone (fold) ([2]; 3.125 ppm piroctone olamine combined with chelator (62.5 ppm DTPMP or 250 ppm chelator)): 4 fold
CC(C(=O)O)N(CC(=O)O)CC(=O)O (stereo not shown) [MGDA, Methylglycine diacetic acid] |  |  |  |  |  |  |  | 16 | 
O=C(O)CC(O)(CC(=O)O)C(=O)O [Citric Acid] |  |  |  |  |  |  |  | 11 | 
CC(=O)N(O)CCCCCNC(=O)CCC(=O)N(O)CCCCCNC(=O)CCC(=O)N(O)CCCCCN [Desferrioxamine, reference compound] |  |  |  |  |  |  |  | 31 | 
